# From ChEMBL document CHEMBL5029185, “Discovery of Novel Polycyclic Heterocyclic Derivatives from Evodiamine for the Potential Treatment of Triple-Negative Breast Cancer” (J Med Chem, 2021)
# Calls of active or inactive are those of the source. The calls are words filed in the database; no cut-off is given here.
# Experiments:
# MDA-MB-231 [1] = test: Antiproliferative activity against human MDA-MB-231 cells assessed as inhibition rate at 10 uM incubated for 72 hrs by MTT assay; format: functional
# HCT-116 = test: Antiproliferative activity against human HCT-116 cells assessed as inhibition rate incubated for 72 hrs by MTT assay; format: functional, cell-based; conditions: HCT-116, 72 h
# A549 = test: Antiproliferative activity against human A549 cells assessed as inhibition rate incubated for 72 hrs by MTT assay; format: functional, cell-based; conditions: A549, 72 h
# MDA-MB-231 [2] = test: Antiproliferative activity against human MDA-MB-231 cells assessed as inhibition rate incubated for 72 hrs by MTT assay; format: functional, cell-based; conditions: MDA-MB-231, 72 h
# [3] = molecular target: T1, DNA topoisomerase 1 (Homo sapiens) (UniProt P11387); test: Inhibition of topoisomerase 1 (unknown origin) assessed as relaxation of supercoiled plasmid pBR322 DNA at 20 uM incubated for 15 mins by agarose gel electrophoresis
# T1 sequence (whole entry): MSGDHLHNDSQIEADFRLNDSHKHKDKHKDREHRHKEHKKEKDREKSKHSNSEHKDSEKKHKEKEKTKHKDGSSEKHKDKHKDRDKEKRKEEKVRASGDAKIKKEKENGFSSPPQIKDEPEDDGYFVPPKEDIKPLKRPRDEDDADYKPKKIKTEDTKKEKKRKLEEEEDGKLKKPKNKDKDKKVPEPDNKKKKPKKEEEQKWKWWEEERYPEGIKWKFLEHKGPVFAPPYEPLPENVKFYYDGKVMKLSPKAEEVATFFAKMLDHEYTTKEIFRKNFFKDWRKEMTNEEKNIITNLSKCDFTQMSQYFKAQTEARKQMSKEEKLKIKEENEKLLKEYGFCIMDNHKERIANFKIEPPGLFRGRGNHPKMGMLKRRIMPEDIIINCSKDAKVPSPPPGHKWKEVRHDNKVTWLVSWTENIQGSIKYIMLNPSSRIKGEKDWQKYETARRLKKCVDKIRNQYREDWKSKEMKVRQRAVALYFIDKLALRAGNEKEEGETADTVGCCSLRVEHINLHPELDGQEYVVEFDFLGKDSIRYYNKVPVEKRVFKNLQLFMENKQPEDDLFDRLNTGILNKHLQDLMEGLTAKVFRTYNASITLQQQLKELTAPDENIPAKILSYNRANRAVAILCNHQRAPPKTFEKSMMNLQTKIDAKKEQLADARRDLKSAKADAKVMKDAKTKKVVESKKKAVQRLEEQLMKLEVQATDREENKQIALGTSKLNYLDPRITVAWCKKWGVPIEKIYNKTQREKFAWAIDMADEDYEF
# [4] = molecular target: T1, DNA topoisomerase 1 (Homo sapiens); test: Inhibition of topoisomerase 1 (unknown origin) assessed as relaxation of supercoiled plasmid pBR322 DNA upto 500 uM incubated for 15 mins by agarose gel electrophoresis; conditions: dose microM <=500, time 15.0 min
# [5] = molecular target: DNA topoisomerase 2-alpha (Homo sapiens) (UniProt P11388); test: Inhibition of topoisomerase 2 (unknown origin) assessed as relaxation of supercoiled kDNA at 100 to 500 uM incubated for 30 mins by agarose gel electrophoresis; conditions: dose 100-500 µM
# [6] = molecular target: T1, DNA topoisomerase 1 (Homo sapiens); test: Induction of topoisomerase 1-DNA cleavable complex in human MDA-MB-231 cells assessed as increase in cleavable complex by measuring SDS-K+ precipitable complex at 15 uM measured up to 15 hrs by liquid scintillation counting analysis; format: cell-based; conditions: time hrs <=15
# [7] = molecular target: T1, DNA topoisomerase 1 (Homo sapiens); test: Induction of topoisomerase 1-DNA cleavable complex in human MDA-MB-231 cells assessed as decrease in free Top1 in nuclear extract at 30 uM measured up to 9 hrs by Immunoband depletion assay; format: cell-based; conditions: time hrs <=9
# MDA-MB-231 [8] = test: Induction of ROS generation in human MDA-MB-231 cells transfected with siRNA-Top1 by fluorescent dye […] based flow cytometry; format: functional, cell-based
# MDA-MB-231 [9] = test: Induction of DNA damage in human MDA-MB-231 cells assessed as ROS-mediated oxidative DNA lesions at 0.4 uM measured after 12 hrs by alkaline comet assay; format: functional, cell-based
# MDA-MB-231 [10] = test: Induction of apoptosis in human MDA-MB-231 cells assessed as changes in cell morphology and nuclei at 0.1 to 0.4 uM by Hoechst 33342 staining based fluorescence microscopy; format: functional; conditions: dose 0.1-0.4 µM
# MDA-MB-231 [11] = test: Induction of mitochondrial membrane disruption in human MDA-MB-231 cells assessed as mitochondrial dysfunction at 0.1 uM measured after 48 hrs by JC-1 staining based flow cytometry (reference value: 3%); format: functional
# MDA-MB-231 [12] = test: Induction of apoptosis in human MDA-MB-231 cells assessed as increase in cytochrome c expression at 0.1 to 0.4 uM measured after 48 hrs by Western blot analysis; format: functional, cell-based; conditions: dose 0.1-0.4 µM
# MDA-MB-231 [13] = test: Induction cell cycle arrest in human MDA-MB-231 cells assessed as accumulation at G1 phase at 0.1 uM measured after 48 hrs by PI staining based flow cytometry (reference value: 53.7%); format: functional
# MDA-MB-231 [14] = test: Induction cell cycle arrest in human MDA-MB-231 cells assessed as accumulation at G2 phase at 0.1 uM measured after 48 hrs by PI staining based flow cytometry (reference value: 10.2%); format: functional
# MDA-MB-231 [15] = test: Induction cell cycle arrest in human MDA-MB-231 cells assessed as accumulation at S phase at 0.1 uM measured after 48 hrs by PI staining based flow cytometry (reference value: 36%); format: functional
# MDA-MB-231 [16] = test: Induction cell cycle arrest in human MDA-MB-231 cells assessed as accumulation at G2 phase at 0.2 uM measured after 48 hrs by PI staining based flow cytometry (reference value: 10.2%); format: functional
# MDA-MB-231 [17] = test: Induction cell cycle arrest in human MDA-MB-231 cells assessed as accumulation at G2 phase at 0.4 uM measured after 48 hrs by PI staining based flow cytometry (reference value: 10.2%); format: functional
# MDA-MB-231 [18] = test: Induction cell cycle arrest in human MDA-MB-231 cells assessed as accumulation at S phase at 0.4 uM measured after 48 hrs by PI staining based flow cytometry (reference value: 36%); format: functional
# MDA-MB-231 [19] = test: Induction cell cycle arrest in human MDA-MB-231 cells assessed as increase in CDK2 expression at 0.4 uM measured after 48 hrs by Western blot analysis; format: functional, cell-based
# MDA-MB-231 [20] = test: Effect on PI3K expression in human MDA-MB-231 cells at 0.4 uM measured after 48 hrs by Western blot analysis; format: functional, cell-based
# HEK293 = test: cells; format: ADME, cell-based; conditions: Homo sapiens, HEK293, 72 h
# Description: Antiproliferative activity against HEK293 cells assessed as inhibition rate incubated for 72 hrs by MTT assay
# [21] = Selectivity index, ratio of IC50 for human MCF-10A cells to IC50 for human MDA-MB-231 cells; conditions: MCF-10A cells versus MDA-MB-231 cells
# Breast carcinoma cell [22] = test: Antitumour activity against human TNBC breast carcinoma cell tissue xenografted PDTX SCID mouse model assessed as tumor cell necrosis […] at 5 to 20 mg/kg treated for 7 days; format: functional, organism-based; conditions: dose 5-20 mg/kg, time 7.0 day
# Breast carcinoma cell [23] = test: Antitumour activity against human TNBC breast carcinoma cell tissue xenografted PDTX SCID mouse model assessed as reduction in Ki67 expression level at 5 to 20 mg/kg treated for 7 days by immunohistochemical analysis; format: functional, organism-based; conditions: dose 5-20 mg/kg, time 7.0 day
# DNA topoisomerase 2-alpha (Homo sapiens), sequence (P11388 whole entry): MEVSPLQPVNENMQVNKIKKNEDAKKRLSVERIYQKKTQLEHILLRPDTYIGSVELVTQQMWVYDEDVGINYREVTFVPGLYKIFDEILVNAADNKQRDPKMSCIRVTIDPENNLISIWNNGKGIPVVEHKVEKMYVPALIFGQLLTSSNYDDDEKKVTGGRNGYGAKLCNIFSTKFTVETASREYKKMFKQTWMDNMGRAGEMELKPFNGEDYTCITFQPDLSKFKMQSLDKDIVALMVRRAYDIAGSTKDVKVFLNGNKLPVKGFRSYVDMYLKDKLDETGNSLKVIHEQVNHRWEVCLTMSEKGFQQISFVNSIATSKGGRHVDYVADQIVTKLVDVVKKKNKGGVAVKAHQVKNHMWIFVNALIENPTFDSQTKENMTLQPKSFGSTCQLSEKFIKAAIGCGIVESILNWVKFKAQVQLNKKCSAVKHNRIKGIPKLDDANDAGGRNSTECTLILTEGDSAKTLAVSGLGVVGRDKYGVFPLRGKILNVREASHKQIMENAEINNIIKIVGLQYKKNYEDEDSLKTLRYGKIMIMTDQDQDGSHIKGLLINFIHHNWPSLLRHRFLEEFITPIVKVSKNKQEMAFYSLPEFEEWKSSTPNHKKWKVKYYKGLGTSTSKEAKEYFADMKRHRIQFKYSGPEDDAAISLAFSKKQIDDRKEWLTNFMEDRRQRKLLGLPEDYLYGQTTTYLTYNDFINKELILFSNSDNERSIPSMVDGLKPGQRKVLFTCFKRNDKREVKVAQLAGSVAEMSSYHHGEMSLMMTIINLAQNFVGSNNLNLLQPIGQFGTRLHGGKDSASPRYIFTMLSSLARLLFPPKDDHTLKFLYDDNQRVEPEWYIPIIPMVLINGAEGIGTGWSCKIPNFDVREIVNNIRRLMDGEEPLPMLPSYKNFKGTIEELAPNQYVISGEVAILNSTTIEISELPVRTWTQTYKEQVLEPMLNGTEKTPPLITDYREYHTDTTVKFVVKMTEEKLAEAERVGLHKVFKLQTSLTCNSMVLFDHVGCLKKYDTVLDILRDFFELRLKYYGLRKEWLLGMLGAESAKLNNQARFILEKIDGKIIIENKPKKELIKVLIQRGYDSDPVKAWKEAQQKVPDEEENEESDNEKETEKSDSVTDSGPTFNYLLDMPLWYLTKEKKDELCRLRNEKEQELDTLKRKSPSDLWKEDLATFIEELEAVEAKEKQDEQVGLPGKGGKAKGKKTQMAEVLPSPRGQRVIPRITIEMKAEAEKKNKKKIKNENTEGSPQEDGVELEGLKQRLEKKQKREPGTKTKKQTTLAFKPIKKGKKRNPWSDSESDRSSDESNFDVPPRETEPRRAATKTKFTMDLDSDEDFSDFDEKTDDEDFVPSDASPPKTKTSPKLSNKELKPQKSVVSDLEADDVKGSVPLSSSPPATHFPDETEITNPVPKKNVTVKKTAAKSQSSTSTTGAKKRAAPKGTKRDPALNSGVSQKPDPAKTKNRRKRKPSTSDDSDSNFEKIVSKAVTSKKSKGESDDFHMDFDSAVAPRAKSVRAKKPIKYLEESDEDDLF
smiles,measurement,setting,value
O=C1c2cc(Cl)ccc2OC2c3oc4ccc(O)cc4c3CCN12 (stereo unspecified),inhibition at 10 µM,MDA-MB-231 [1],84.3%
same,IC50,HCT-116,0.76 µM
same,IC50,A549,5.24 µM
same,IC50,MDA-MB-231 [2],0.36 µM
same,inhibition,[3],Active
same,Activity,[4],inactive
same,inhibition,[5],inactive
same,Activity,[6],Active
same,Activity,[7],Active
same,Activity,MDA-MB-231 [8],Active
same,Activity,MDA-MB-231 [9],Active
same,Activity,MDA-MB-231 [10],Active
same,Activity,MDA-MB-231 [11],12.2%
same,Activity,MDA-MB-231 [12],Active
same,Activity,MDA-MB-231 [13],68.1%
same,Activity,MDA-MB-231 [14],7.2%
same,Activity,MDA-MB-231 [15],24.7%
same,Activity,MDA-MB-231 [16],5.3%
same,Activity,MDA-MB-231 [17],6.9%
same,Activity,MDA-MB-231 [18],22.9%
same,Activity,MDA-MB-231 [19],Active
same,Activity,MDA-MB-231 [20],inactive
same,IC50,HEK293,35.5 µM
same,selectivity ratio,[21],18.8
same,Activity,Breast carcinoma cell [22],Active
same,Activity,Breast carcinoma cell [23],Active
